# “Also recorded” adds a separate entry of the source.
# Columns and labels:
# [1] = target: T1, Batx-I (Bothrops atrox, UniProt P0DJE1); test: biochemical; type: biochemical
# [2] = target: T1, Batx-I; type: biochemical
# [3] = target: T1, Batx-I; conditions: cited from earlier work
# [4] = test system: BaP1; conditions: EDTA chelates the catalytic Zn2+ ion; cited from earlier work
# T1 sequence (P0DJE1 whole entry, looked up): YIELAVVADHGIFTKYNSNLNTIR
compound,measurement,setting,value
C=C(C)[C@@H]1CC[C@]2(CO)CC[C@]3(C)[C@H](CC[C@@H]4[C@@]5(C)CC[C@H](O)C(C)(C)[C@@H]5CC[C@]43C)[C@@H]12 [Betulin],Inhibition of metalloproteinase proteolytic activity (in words),[1],negligible activity
same,IC50,[1],1470 ± 130 µM
C=C(C)[C@@H]1CC[C@]2(C(=O)O)CC[C@]3(C)[C@H](CC[C@@H]4[C@@]5(C)CC[C@H](O)C(C)(C)[C@@H]5CC[C@]43C)[C@@H]12 [Betulinic acid],Type of inhibition,[2],competitive inhibitors
same,ΔG^∘ Experimental,[2],-4.5 ± 0.1 kcal/mol
same,IC50,[1],115 ± 16 µM
"O=C(O)CN(CCN(CC(=O)O)CC(=O)O)CC(=O)O [EDTA, Ethylenediamine-tetraacetic acid]",Effect on proteolytic activity of Batx-I,[3],eliminated
same,Effect on proteolytic activity of BaP1,[4],eliminated
C[C@H]1[C@H](C)CC[C@]2(C(=O)O)CC[C@]3(C)C(=CC[C@@H]4[C@@]5(C)C[C@@H](O)[C@H](O)[C@@](C)(CO)[C@@H]5[C@H](O)C[C@]43C)[C@H]12 [Madecassic acid],IC50,[1],540 ± 80 µM
CC1(C)CC[C@]2(C(=O)O)CC[C@]3(C)C(=CC[C@@H]4[C@@]5(C)CC[C@H](O)C(C)(C)[C@@H]5CC[C@]43C)[C@@H]2C1 [Oleanolic acid],Type of inhibition,[2],competitive inhibitors
same,ΔG^∘ Experimental,[2],-3.7 ± 0.1 kcal/mol
same,IC50,[1],360 ± 70 µM
C[C@H]1[C@H](C)CC[C@]2(C(=O)O)CC[C@]3(C)C(=CC[C@@H]4[C@@]5(C)CC[C@H](O)C(C)(C)[C@@H]5CC[C@]43C)[C@H]12 [Ursolic acid],Type of inhibition,[2],competitive inhibitors
same,ΔG^∘ Experimental,[2],-3.5 ± 0.1 kcal/mol
same,IC50,[1],220 ± 40 µM
CC1CCC2(C)CCC3(C)C(=CCC4C5(C)CCC(O)C(C)(C(=O)O)C5CCC43C)C2C1C (stereo not drawn) [β -Boswellic acid],Inhibition of metalloproteinase proteolytic activity (in words),[1],negligible activity; also recorded: does not inhibit
same,activity at 2000 µM,[1]; read-out: Batx-I proteolytic activity still observed,70%

# Source: paper PMC6215199 (Toxins, 2018)
